Where two headings read alike, the source gives them in different places.
Legend:
SUDHL5 [1] = test: Antiproliferation assay (Assay 7), SUDHL5; type: cell-based; details: CellTiter-Glo, median, read-out: Antiproli SUDHL5 [M] (median) IC50
How it was run: (§1)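 Proliferation over 72 h at 37° C was assessed by luminescent cell viability reagent, referenced to a day 0 plate.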

SUDHL5 [2] = test: Induction of caspase-3/7 activity (Assay 4), SUDHL5; type: cell-based; details: caspase-3/7 induction, median
How it was run: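 DLBCL cells were exposed to compounds for 3 hours at 37 °C, then caspase-3/7 activation was read with Caspase-Glo 3/7 reagent. After subtracting medium-only background, EC50s were derived with fixed C0=1 and the reference compound's maximal induction as plateau.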

SUDHL10 = test: Induction of cytotoxicity (Assay 6), SUDHL10; details: read-out: Cytotox SUDHL10 [M] (median) IC50, CellTiter-Glo, 5 hours, SUDHL10
Method: Assay 6 Induction of Cytotoxicity Upon Treatment of Cells with Selected Compounds
Therefore, cytotoxicity assays were run in parallel in SUDHL5 and SUDHL10 cells.
The different cell lines were plated in culture medium (RPMI 1640 [GIBCO #22400-089] supplemented with 10% Fetal Bovine Serum) at a density of 3,300 cells in 30 μl/well in a sterile, solid black, flat bottom, polystyrene, TC-treated 384-well microplate (Corning #3571) using Multidrop Combi Reagent Dispenser. As a control, medium without cells was also added to the plate. Cells were incubated in a humidified incubator at 37° C. overnight. On the next day, the cells were treated with compounds (stock solution, 10 mM in DMSO) using the HP D300 Digital Dispenser in a concentration range of 3.3×10e-5 M (33 μM) to 5×10e-9 M (5 nM) in a single-dot curve with at least 16 dilutions and a DMSO concentration of 0.33%. Rim wells were excluded. The cells were incubated for 5 hours in a humidified incubator at 37° C. After this incubation, 30 μl of CellTiter-Glo® Luminescent Cell Viability reagent (Promega, G7573) was added to each well using the Multidrop Combi Reagent Dispenser, followed by 15 minutes incubation on a shaker at room temperature. Finally, luminescence was read at 0.1 ms, with a gain of 3000 using the PHERAstar FS microplate reader (BMG Labtech).

BCL-2 = BCL-2 (Homo sapiens (Human), UniProt P10415); test: Protein-protein interaction assay BCL-2/Bad BH3 peptide (BCL-2 assay, TR-FRET); type: binding; details: His-BCL-2 / Bad BH3 peptide, median
Chain of BCL-2 (P10415 other isoform, or with tags, fused parts or gaps): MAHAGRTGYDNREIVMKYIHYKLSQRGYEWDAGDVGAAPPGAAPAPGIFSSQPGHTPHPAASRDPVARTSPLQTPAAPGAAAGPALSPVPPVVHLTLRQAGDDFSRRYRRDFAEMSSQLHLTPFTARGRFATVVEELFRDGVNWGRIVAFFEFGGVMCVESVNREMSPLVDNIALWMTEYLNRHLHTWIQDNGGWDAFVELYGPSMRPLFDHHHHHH
How it was run: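 His-BCL-2 (1-211, E. coli) at 1 nM preincubated 10 min at 22 °C with compound (11 concentrations, 0.1 nM-20 μM, duplicates), then 1 nM biotinylated Bad BH3 peptide added. After 1 h at 22 °C plus overnight at 4 °C, TR-FRET 665/620 ratio normalised to DMSO and no-BCL-2 controls, IC50 from 4-parameter fit.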

AMO-1 = test: Antiproliferation assay (Assay 7), AMO-1; type: cell-based; details: CellTiter-Glo, several values per example, read-out: Antiproli AMO-1 [M] IC50
How it was run: as §1

IC50 (BCL-2) [µM] | IC50 (SUDHL5 [1]; Homo sapiens, SU-DHL-5, 72 h) [M] | EC50 (SUDHL5 [2]; Homo sapiens, SU-DHL-5, 3 h) [nM] | Structure (SMILES) | IC50 (SUDHL5 [1]; 72 hours) [M] | EC50 (SUDHL5 [2]; 3 hours) [nM] | IC50 (SUDHL10) [M] | IC50 (AMO-1; 72 hours) [M] | IC50 (SUDHL10; Homo sapiens, SU-DHL10, 5 h) [M] | IC50 (AMO-1; Homo sapiens, AMO1, 72 h) [M]
> 20 |  |  | CCc1c2c(nn1C)C(CCC1CCOCC1)N(C)S(=O)(=O)CCCn1c(C(=O)O)c(CCCOc3cccc4cc(F)ccc34)c3ccc(Cl)c-2c31 (single isomer, unassigned; enantiomer 4) [Example 64, (−)-4-chloro-3-ethyl-7-{3-[(6-fluoronaphthalen-1-yl)oxy]propyl}-2,14-dimethyl-15-[2-(oxan-4-yl)ethyl]-13,13-dioxo-10,11,12,13,14,15-hexahydro-2H-13lambda^6-pyrazolo[3′,4′:4,5][1,2,8]thiadiazacycloundecino[6,7,8-hi]indole-8-carboxylic acid (Enantiomer 4)] | 1.4e-06 | 1200 | 2.9e-06 | 1e-06 |  | 
> 20 | 1.2e-06 | 1100 | CCc1c2c(nn1C)CN(C)S(=O)(=O)CCCn1c(C(=O)O)c(CCCOc3ccc(F)c4ccccc34)c3ccc(Cl)c-2c31 [Example 24, (rac)-13-Chloro-12-ethyl-1-(34(4-fluoronaphthalen-1-yl)oxy)propyl)-8,11-dimethyl-4,5,6,8,9,11-hexahydropyrazolo[3′,4′:4,5][1,2,8]thiadiazacycloundecino[6,7,8-hi]indole-2-carboxylic acid 7,7-dioxide] |  |  |  |  | 2.4e-06 | 4.3e-06
> 20 | 1.4e-06 | 1700 | Cc1c2c(nn1C)CN(C)S(=O)(=O)CCCn1c(C(=O)O)c(CCCOc3ccc(F)c4ccccc34)c3ccc(F)c-2c31 [Example 30, (rac)-13-Fluoro-1-(34(4-fluoronaphthalen-1-yl)oxy)propyl)-8,11,12-trimethyl-5,6,9,11-tetrahydro-4H,8H-pyrazolo[3′,4′:4,5][1]thia[2,8]diazacycloundecino[6,7,8-hi]indole-2-carboxylic acid 7,7-dioxide] |  |  |  |  | 4.4e-06 | 7e-06

The next lines start with the molecule.

Structure (SMILES) | IC50 (BCL-2) [µM] | IC50 (SUDHL5 [1]; Homo sapiens, SU-DHL-5, 72 h) [M] | EC50 (SUDHL5 [2]; Homo sapiens, SU-DHL-5, 3 h) [nM] | IC50 (SUDHL5 [1]; 72 hours) [M] | EC50 (SUDHL5 [2]; 3 hours) [nM] | IC50 (SUDHL10) [M] | IC50 (AMO-1; 72 hours) [M] | IC50 (SUDHL10; Homo sapiens, SU-DHL10, 5 h) [M] | IC50 (AMO-1; Homo sapiens, AMO1, 72 h) [M]
CCc1c2c(nn1C)CN(C)S(=O)(=O)CCCn1c(C(=O)O)c(CCCOc3cccc4ccccc34)c3ccc(Cl)c-2c31 [Example 20, (rac)-13-Chloro-12-ethyl-8,11-dimethyl-1-(3-(naphthalen-1-yloxy)propyl)-5,6,9,11-tetrahydro-4H,8H-pyrazolo[3′,4′:4,5][1]thia[2,8]diazacycloundecino[6,7,8-hi]indole-2-carboxylic acid 7,7-dioxide] | > 20 | 5.2e-07 | 860 |  |  |  |  | 1.7e-06 | 2.8e-06
CCc1c2c(nn1C)CN(C)S(=O)(=O)CCCn1c(C(=O)O)c(CCCOc3cccc4c3CCC4)c3ccc(Cl)c-2c31 [Example 21, (rac)-13-Chloro-1-(3-((2,3-dihydro-1H-inden-4-yl)oxy)propyl)-12-ethyl-8,11-dimethyl-5,6,9,11-tetrahydro-4H,8H-pyrazolo[3′,4′:4,5][1]thia[2,8]diazacycloundecino[6,7,8-hi]indole-2-carboxylic acid 7,7-dioxide] | > 20 | 5.3e-07 | 650 |  |  |  |  | 1.8e-06 | 2.6e-06
CCc1c2c(nn1C)CN(C)S(=O)(=O)CCCn1c(C(=O)O)c(CCCOc3cc(C)c(Cl)c(C)c3)c3ccc(Cl)c-2c31 [Example 22, (rac)-13-Chloro-1-(3-(4-chloro-3,5-dimethylphenoxy)propyl)-12-ethyl-8,11-dimethyl-4,5,6,8,9,11-hexahydropyrazolo[3′,4′:4,5][1,2,8]thiadiazacycloundecino[6,7,8-hi]indole-2-carboxylic acid 7,7-dioxide] | > 20 | 1.9e-06 | 1800 |  |  |  |  | 3.6e-06 | 2.6e-06
CCc1c2c(nn1C)CN(C)S(=O)(=O)CCCn1c(C(=O)O)c(CCCOc3cccc4c3CCCC4)c3ccc(Cl)c-2c31 [Example 23, (rac)-13-Chloro-12-ethyl-8,11-dimethyl-1-(3-((5,6,7,8-tetrahydronaphthalen-1-yl)oxy)propyl)-4,5,6,8,9,11-hexahydropyrazolo[3′,4′:4,5][1,2,8]thiadiazacycloundecino[6,7,8-hi]indole-2-carboxylic acid 7,7-dioxide] | 15 | 6.9e-07 | 1300 |  |  |  |  | 2.5e-06 | 3.8e-06
Cc1c2c(nn1C)CN(C1CC1)S(=O)(=O)CCCn1c(C(=O)O)c(CCCOc3cccc4ccccc34)c3ccc(Cl)c-2c31 [Example 40, (rac)-4-chloro-14-cyclopropyl-2,3-dimethyl-7-[3-(1-naphthyloxy)propyl]-11,12,14,15-tetrahydro-2H,10H-pyrazolo[3′,4′:4,5][1,2,8]thiadiazacycloundecino[6,7,8-hi]indole-8-carboxylic acid 13,13-dioxide] | > 20 |  |  | 2.6e-06 | 1900 | 3.9e-06 | 4.9e-06 |  | 
